According to US8124634B2, “CB1 receptor modulators” (7TM Pharma A/S, priority 2006, dated 2012):

Molecular target: T1, human CB1 receptor (Homo sapiens, UniProt P21554)
T1 construct: expressed in transfected cells; membranes
Assay: Cannabinoid Receptor-1 functional assay: inhibition of CP55940-induced [35S]GTPγS binding to membranes of CHO-K1 cells expressing human CB1
Format: biochemical
Conditions: 3 nM CP55940, hCB1 membranes, [35S]GTPγS SPA; read-out: IC50 value for antagonizing a CB1 receptor agonist
Source text: Transfection and Cell Culture—The cDNA encoding the human CB1 (Cannabinoid Receptor-1) receptor (GenBank accession number NM_016083) was cloned from a human adipose tissue cDNA library and cloned into the eukaryotic expression vector pcDNA3.1 (Invitrogen).
Chinese Hamster Ovary cells (CHO-K1) stably expressing recombinant human CB1 were generated by transfecting the plasmid containing the coding sequence of the human CB1 receptor in CHO-K1 cells, using lipofectamin, according to the manufacturer instructions. Resistant clones were selected in the presence of 600 μg/ml G418 (Life technology). Stably transfected CHO-K1 cells were maintained in Ham's F-12 culture medium (Invitrogen), supplemented with 10% fetal calf serum (Invitrogen), 100 U/ml penicillin, 100 μg/ml streptomycin (Life Technology), and 600 μg/ml G418.
Cannabinoid Receptor-1 Functional Assay.
Functional activities of the above examples of compounds of the invention were assessed in vitro by measuring their ability to inhibit CP55940-induced [^35S]GTPγS binding to membranes prepared from CHO-K1 cells expressing the human CB1 receptor (described in Transfection and Cell Culture). CP55940 is a well known non-selective CB1 and CB2 receptor agonist (e.g Felder et al., 1995, Molecular Pharmacology, (48) 443-50). Membranes were prepared by a standard procedure. Briefly, cells were harvested using 10 mM EDTA and collected by centrifugation. Pelleted cells were homogenized in ice-cold 20 mM Hepes (pH 7.4),10 mM EDTA and protease inhibitors (Complete protease inhibitor cocktail tablet, Roche) using an Ultra Turrax Homogenizer. The homogenate was centrifuged at 14 000 rpm for 45 min. at 4° C. The resultant pellet was resuspended in the same buffer but with only 0.1 mM EDTA and was again centrifuged at 14 000 rpm for 45 min. at 4° C. The resulting pellet (membranes) was resuspended in 20 mM Hepes (pH 7.4), 0.1 mM EDTA, 2 mM MgCl2 and protease inhibitors and protein concentration was determined by Micro BCA Protein Assay Reagent Kit (Pierce Biotechnology) according to the manufacturer instructions. The [^35S]GYPγS SPA (Scintillation Proximity Assay) binding assay was performed by incubating 5 μg/well hCB1-membranes with 1 nM [^35S]GYPγS (Perkin Elmer—NEG 030H) in the presence of 3 nM of CP55940 and various concentrations of the test compounds at room temperature for 1 hr in 96-well microtiter plates. 0.4 mg/well SPA beads (PVT-WGA; RPNQ0001 Amersham Pharmacia Biotech) were then added and the incubation continued for further 30 min. on an orbital shaker. The assay buffer contained 50 mM HEPES (pH 7.5), 50 mM NaCl, 2.5 mM MgCl2, 0.1% BSA, 1 μM GDP and 100 μg/ml Saponin. Microtiter plates were centrifuged at 1500 rpm for 5 min. and radioactivity was read immediately using a Topcounter (PerkinElmer Life Sciences). Data were analyzed and IC50 values determined by non-linear regression using the Prism software (GraphPad Software, San Diego).

T1 sequence (P21554 whole entry): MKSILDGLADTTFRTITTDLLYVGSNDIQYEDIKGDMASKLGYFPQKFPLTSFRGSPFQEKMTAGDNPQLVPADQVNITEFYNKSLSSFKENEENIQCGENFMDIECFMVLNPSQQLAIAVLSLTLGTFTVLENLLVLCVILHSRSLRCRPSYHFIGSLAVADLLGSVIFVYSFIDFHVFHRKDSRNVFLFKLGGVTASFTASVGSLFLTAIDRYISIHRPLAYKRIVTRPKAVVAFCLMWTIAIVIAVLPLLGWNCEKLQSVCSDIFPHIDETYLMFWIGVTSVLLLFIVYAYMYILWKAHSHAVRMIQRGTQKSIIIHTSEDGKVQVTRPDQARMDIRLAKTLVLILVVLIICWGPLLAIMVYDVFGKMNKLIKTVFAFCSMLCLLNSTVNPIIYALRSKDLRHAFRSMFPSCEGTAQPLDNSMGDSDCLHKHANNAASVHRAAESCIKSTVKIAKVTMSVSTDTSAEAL

Row | SMILES | IC50 [nM]
1 | CC(NC(=O)c1nn(-c2ccccc2Cl)c(-c2ccc(Cl)cc2)c1Cc1nn[nH]n1)c1ccc(Cl)c(F)c1 (stereo not shown) [[2.19], 5-(4-Chloro-phenyl)-1-(2-chloro-phenyl)-4-(2H-tetrazol-5-ylmethyl)-1H-pyrazole-3-carboxylic acid [1-(4-chloro-3-fluoro-phenyl)-ethyl]-amide] | < 300
2 | C[C@@H](NC(=O)c1nn(-c2ccccc2Cl)c(-c2ccc(Cl)cc2)c1OCC(=O)O)c1ccc(C(F)(F)F)cc1 [Compound [1.3], {1-(2-Chloro-phenyl)-5-(4-chloro-phenyl)-3-[(R)-1-(4-trifluoromethyl-phenyl)-ethylcarbamoyl]-1H-pyrazol-4-yloxy}-acetic acid] | < 300
3 | C[C@H](Oc1c(C(=O)N[C@H](C)c2ccc(Br)cc2)nn(-c2ccccc2Cl)c1-c1ccc(Cl)cc1)C(=O)O [[1.2], (S)-2-[3-[(R)-1-(4-Bromo-phenyl)-ethylcarbamoyl]-1-(2-chloro-phenyl)-5-(4-chloro-phenyl)-1H-pyrazol-4-yloxy]-propionic acid] | 300 to 3000
4 | CC(c1ccc(S(C)(=O)=O)cc1)N(C)C(=O)c1nn(-c2ccccc2Cl)c(-c2ccc(Cl)cc2)c1CC(=O)O (stereo not shown) [[1.8], (1-(2-Chloro-phenyl)-5-(4-chloro-phenyl)-3-{methyl-[1-(4-methylsufonyl-phenyl)-ethyl]-carbamoyl}-1H-pyrazol-4-yl)-acetic acid] | 300 to 3000
5 | C[C@@H](NC(=O)c1nn(-c2ccccc2Cl)c(-c2ccc(Cl)cc2)c1Cc1nnn[nH]1)c1cccc(Cl)c1 [[2.25], 1-(2-Chloro-phenyl)-5-(4-chloro-phenyl)-4-(1H-tetrazol-5-ylmethyl)-1H-pyrazole-3-carboxylic acid [(R)-1-(3-chloro-phenyl)-ethyl]-amide] | < 300
6 | C[C@@H](NC(=O)c1nn(-c2ccccc2Cl)c(-c2ccc(Cl)cc2)c1CC(=O)O)c1ccc(C(F)(F)F)cc1 [[1.5], {1-(2-Chloro-phenyl)-5-(4-chloro-phenyl)-3-[(R)-1-(4-trifluoromethyl-phenyl)-ethylcarbamoyl]-1H-pyrazol-4-yl}-acetic acid] | < 300
7 | C[C@@H](NC(=O)c1nn(-c2ccccc2Cl)c(-c2ccc(Cl)cc2)c1Cc1nnn[nH]1)c1cccc(C(F)(F)F)c1 [[2.12], 1-(2-Chloro-phenyl)-5-(4-chloro-phenyl)-4-(1H-tetrazol-5-ylmethyl)-1H-pyrazole-3-carboxylic acid [(R)-1-(3-trifluoromethyl-phenyl)-ethyl]-amide] | < 300
8 | CC(NC(=O)c1nn(-c2ccccc2Cl)c(-c2ccc(Cl)cc2)c1Cc1nnn[nH]1)c1ccc(Br)cc1 (stereo not shown) [Compound [2.1], 1-(2-Chloro-phenyl)-5-(4-chloro-phenyl)-4-(1H-tetrazol-5-ylmethyl)-1H-pyrazole-3-carboxylic acid [1-(4-bromo-phenyl)-ethyl]-amide] | < 300
9 | C[C@@H](Oc1c(C(=O)N[C@H](C)c2ccc(Br)cc2)nn(-c2ccccc2Cl)c1-c1ccc(Cl)cc1)C(=O)O [[1.4], (R)-2-[3-[(R)-1-(4-Bromo-phenyl)-ethylcarbamoyl]-1-(2-chloro-phenyl)-5-(4-chloro-phenyl)-1H-pyrazol-4-yloxy]-propionic acid] | < 300
10 | CC(NC(=O)c1nn(-c2ccccc2Cl)c(-c2ccc(Cl)cc2)c1Cc1nn[nH]n1)c1ccc(Br)cc1F (stereo not shown) [[2.20], 1-(2-Chloro-phenyl)-5-(4-chloro-phenyl)-4-(2H-tetrazol-5-ylmethyl)-1H-pyrazole-3-carboxylic acid [1-(4-bromo-2-fluoro-phenyl)-ethyl]-amide] | < 300
11 | CC(NC(=O)c1nn(-c2ccccc2Cl)c(-c2ccc(Cl)cc2)c1Cc1nnn[nH]1)c1ccc(Cl)c(Cl)c1 (stereo not shown) [[2.13], 1-(2-Chloro-phenyl)-5-(4-chloro-phenyl)-4-(1H-tetrazol-5-ylmethyl)-1H-pyrazole-3-carboxylic acid [1-(3,4-dichloro-phenyl)-ethyl]-amide] | < 300
12 | C[C@@H](NC(=O)c1nn(-c2ccccc2Cl)c(-c2ccc(Cl)cc2)c1Cc1nn[nH]n1)c1ccc(Cl)c(Cl)c1 [[2.22], 1-(2-Chloro-phenyl)-5-(4-chloro-phenyl)-4-(2H-tetrazol-5-ylmethyl)-1H-pyrazole-3-carboxylic acid [(R)-1-(3,4-dichloro-phenyl)-ethyl]-amide] | < 300
13 | C[C@@H](NC(=O)c1nn(-c2ccccc2Cl)c(-c2ccc(Cl)cc2)c1Cc1nn[nH]n1)c1ccc(Cl)c(F)c1 [[2.23], 1-(2-Chloro-phenyl)-5-(4-chloro-phenyl)-4-(2H-tetrazol-5-ylmethyl)-1H-pyrazole-3-carboxylic acid [(R)-1-(3-fluoro-4-chloro-phenyl)-ethyl]-amide] | < 300
14 | C[C@H](NC(=O)c1nn(-c2ccccc2Cl)c(-c2ccc(Cl)cc2)c1Cc1nnn[nH]1)c1ccc(Br)cc1 [[2.4], 1-(2-Chloro-phenyl)-5-(4-chloro-phenyl)-4-(1H-tetrazol-5-ylmethyl)-1H-pyrazole-3-carboxylic acid [(S)-1-(4-bromo-phenyl)-ethyl]-amide] | 300 to 3000
15 | C[C@H](c1ccc(C(F)(F)F)cc1)N(C)C(=O)c1nn(-c2ccccc2Cl)c(-c2ccc(Cl)cc2)c1Cc1nnn[nH]1 [[2.14], 1-(2-Chloro-phenyl)-5-(4-chloro-phenyl)-4-(1H-tetrazol-5-ylmethyl)-1H-pyrazole-3-carboxylic acid methyl-[(R)-1-(4-trifluoromethyl-phenyl)-ethyl]-amide] | < 300
16 | C[C@H](c1ccc(OC(F)(F)F)cc1)N(C)C(=O)c1nn(-c2ccccc2Cl)c(-c2ccc(Cl)cc2)c1Cc1nnn[nH]1 [[2.27], 1-(2-Chloro-phenyl)-5-(4-chloro-phenyl)-4-(1H-tetrazol-5-ylmethyl)-1H-pyrazole-3-carboxylic acid methyl-[(R)-1-(4-trifluoromethoxy-phenyl)-ethyl]-amide] | < 300
17 | C[C@@H](NC(=O)c1nn(-c2ccccc2Cl)c(-c2ccc(Cl)cc2)c1Cc1nnn[nH]1)c1ccc(F)cc1 [[2.8], 1-(2-Chloro-phenyl)-5-(4-chloro-phenyl)-4-(1H-tetrazol-5-ylmethyl)-1H-pyrazole-3-carboxylic acid [(R)-1-(4-fluoro-phenyl)-ethyl]-amide] | < 300
18 | C[C@H](c1ccc(C(F)(F)F)cc1)N(C)C(=O)c1nn(-c2ccccc2Cl)c(-c2ccc(Cl)cc2)c1C(O)C(=O)O (stereo partly drawn) [Compound [1.12], (1-(2-Chloro-phenyl)-5-(4-chloro-phenyl)-3-{methyl-[(R)-1-(4-trifluoromethyl-phenyl)-ethyl]-carbamoyl}-1H-pyrazol-4-yl)-2-hydroxyacetic acid] | < 300
19 | CCC(NC(=O)c1nn(-c2ccccc2Cl)c(-c2ccc(Cl)cc2)c1Cc1nnn[nH]1)c1ccc(C(F)(F)F)cc1 (stereo not shown) [[2.15], 1-(2-Chloro-phenyl)-5-(4-chloro-phenyl)-4-(1H-tetrazol-5-ylmethyl)-1H-pyrazole-3-carboxylic acid [1-(4-trifluoromethyl-phenyl)propyl]-amide] | < 300
20 | CC(NC(=O)c1nn(-c2ccccc2Cl)c(-c2ccc(Cl)cc2)c1Cc1nnn[nH]1)c1ccc(F)c(F)c1 (stereo not shown) [[2.16], 1-(2-Chloro-phenyl)-5-(4-chloro-phenyl)-4-(1H-tetrazol-5-ylmethyl)-1H-pyrazole-3-carboxylic acid [1-(3,4-difluoro-phenyl)-ethyl]-amide] | < 300
21 | CC(C(=O)O)c1c(C(=O)N(C)[C@H](C)c2ccc(C(F)(F)F)cc2)nn(-c2ccccc2Cl)c1-c1ccc(Cl)cc1 (stereo partly drawn) [Compound [1.11], 2-{1-(2-Chloro-phenyl)-5-(4-chloro-phenyl)-3-{methyl-[(R)-1-(4-trifluoromethyl-phenyl)-ethyl]-carbamoyl}-1H-pyrazol-4-yl}-propionic acid] | < 300
22 | C[C@H](c1ccc(F)c(Cl)c1)N(C)C(=O)c1nn(-c2ccccc2Cl)c(-c2ccc(Cl)cc2)c1Cc1nnn[nH]1 [[2.28], 1-(2-Chloro-phenyl)-5-(4-chloro-phenyl)-4-(1H-tetrazol-5-ylmethyl)-1H-pyrazole-3-carboxylic acid methyl-[(R)-1-(3-chloro-4-fluoro-phenyl)-ethyl]-amide] | < 300
